Melting point data for 2 molecules are collected here from patent US6780867B2, “Thienopyrimidines” (Merck Patent GmbH, priority 2000, dated 2004).

Counter-ions that a name gives are not always drawn.

In turn, `COc1ccc(CNc2nc(COCC(=O)O)nc3sc4c(c23)CCCC4)cc1Cl` (as salt: salt) [Example 6, [4-(3-chloro-4-methoxybenzylamino)-5,6,7,8-tetrahydrobenzo[4,5]thieno-[2,3-d]pyrimidin-2-ylmethoxy]acetic acid] had a melting point of 136 to 137 °C.

Turning to `CCOC(=O)CSCc1nc(NCc2ccc(OC)c(Cl)c2)c2c3c(sc2n1)CCCC3` [Example 5, ethyl [4-(3-chloro-4-methoxybenzylamino)-5,6,7,8-tetrahydrobenzo[4,5]thieno-[2,3-d]pyrimidin-2-ylmethylsulfanyl]acetate], the melting point fell in the range of 158 to 160 °C.

By melting point is commonly meant the temperature, or range, at which the solid turns liquid.
